{
  "source": "patent US9757360B2",
  "about": "“Pharmaceutical composition comprising a ryanodine receptor antagonist for facilitating wound healing” (SZEGEDI TUDOMÁNYEGYETEM, priority 2013, dated 2017)",
  "key": {"[1]": {"tested_on": "epidermal barrier function", "conditions": "cited from earlier work"}, "[2]": {"tested_on": "microcirculation of the wound edges", "assay": "Intravital videomicroscopy (IVM) of the microcirculation of the wound edges", "assay_type": "in vivo, SKH-1 hairless mice", "conditions": "100 μM topical once a day", "procedure": "(§1) The experiments were performed on male SKH-1 hairless mice of our own rearing (body weight: 36-44 g). Procedures and protocols were approved by the competent authorities (license number: V./145/2013.). Only healthy animals free of any type of injury were used, mice with any sign of disorders were discarded. Prior to the interventions the animals were anesthetized with a mixture of ketamine (Sigma) (90 mg/kg) and xylazine (Sigma) (25 mg/kg) administered intraperitoneally. A skin fold was formed in the dorsal region and was fixed with two symmetrical, fenestrated titanium plates (IROLA GmbH, Schonach, Germany) according to the description of Sorg et al. (Sorg et al., 2007).\nIn the midline of the dorsal region two holding stitches were placed in order to form a skin fold. This skin fold was sandwiched by two symmetrical, fenestrated titanium plates. The plates were fixed with sutures, bolts and nuts. On one side of the skin fold, a circular full-thickness wound was made by removing the tissue down to muscle layer of the other side (the diameter of the wound was 4 mm while those of used for Laser-Doppler flowmetry came to 11 mm). The wound was covered with a glass coverslip incorporated into the window of the titanium frame. The glass was removed for the duration of treatments and measurements only. In the control group (n=6), the wounds were treated with 100 μL of sterile saline once a day while in the dantrolene-treated group (n=6) 100 μL of a solution containing the sodium salt of dantrolene (100 μM) was applied to the wound once a day (the salt was dissolved in sterile saline). The observation period took 20 days (according to our previous results this is the time period needed for approximately 100% closure of wounds of 4 mm).\nIntravital videomicroscopy (IVM). Microcirculation of the wound edges was monitored by means of IVM on days 4, 8 and 12. After anesthesia, 80 μL of a solution of fluorescein-isothyocyanate (FITC) labeled dextrane (2%) and also 80 μL of a solution of rhodamine-6G was administered retrobulbar. These contrast materials allow us to visualize microcirculation and leukocyte-endothelial interactions at the appropriate wavelengths. Video records of the microcirculation were evaluated off-line with Pictron IVM software. Red blood cell velocity (RBCV) was determined in the capillaries, the diameter of each vessel in the evaluated fields-of-view was measured (only diameters above 6 μm were considered) and sticking leukocytes were counted in the postcapillary venules (this parameter is relative to the area of the vessel wall and is given as cell/μm2).\nControl- and dantrolene-treated groups were compared with the Mann-Whitney test and p<0.05 was considered statistically significant."}, "[3]": {"tested_on": "full-thickness dermal wound", "assay": "Histology of excised wounds (epithelialization zone, dermal regeneration)", "assay_type": "in vivo, SKH-1 hairless mice", "conditions": "day 4; 100 μM topical once a day", "procedure": "as §1\nIn the midline of the dorsal region two holding stitches were placed in order to form a skin fold. This skin fold was sandwiched by two symmetrical, fenestrated titanium plates. The plates were fixed with sutures, bolts and nuts. […]\nHistology. […] Zone of epithelialization was defined as the extension of epithelial regeneration measured from the wound edges and given as percentage relative to the initial diameter of the wound. Dermal regeneration was determined, too (thickness of dermal connective tissue was measured within the wound area and was given as percentage relative to that of determined in the intact skin). […]"}, "[4]": {"tested_on": "full-thickness dermal wound", "assay": "Macroscopic wound closure of full-thickness dermal wounds in a dorsal skin fold chamber (photo documentation)", "assay_type": "in vivo, SKH-1 hairless mice", "conditions": "for Rate of wound closure vs control group: 100 μM topical once a day", "excerpt": "In our experiments, we have studied the effects of dantrolene on different parameters of wound healing. SKH-1 hairless male mice were used in the experiments. Full-thickness wound was made in a dorsal skin fold. The effects of dantrolene or saline (control group) on wound healing were monitored by means of photo documentation, intravital videomicroscopy (IVM) and laser Doppler flowmetry. The experimental setup was in accordance with the model described by Sorg et al. (Sorg et al., 2007). Wounds were treated daily either with dantrolene or with saline.\nas §1\n(§2) In the midline of the dorsal region two holding stitches were placed in order to form a skin fold. This skin fold was sandwiched by two symmetrical, fenestrated titanium plates. The plates were fixed with sutures, bolts and nuts. On one side of the skin fold, a circular full-thickness wound was made by removing the tissue down to muscle layer of the other side (the diameter of the wound was 4 mm while those of used for Laser-Doppler flowmetry came to 11 mm). The wound was covered with a glass coverslip incorporated into the window of the titanium frame. The glass was removed for the duration of treatments and measurements only. […]\nMacroscopic wound closure. […] The images were evaluated with a software developed by our working group (DermAssess©). […]"}, "[5]": {"tested_on": "blood flow of the wound area", "assay": "Laser-Doppler flowmetry of the wound area", "assay_type": "in vivo, SKH-1 hairless mice", "conditions": "day 1 after wound creation; 200 μL dantrolene solution, measured 10 minutes later; 11 mm wound", "procedure": "as §1, §2"}},
  "data": [
    {"smiles": "O=C1CN(/N=C/c2ccc(-c3ccc([N+](=O)[O-])cc3)o2)C(O)=N1", "note": "[dantrolene]", "values": [
      {"measurement": "Barrier regeneration", "setting": "[1]; local application, after removal of the uppermost layer of the epidermis", "result": "accelerates"},
      {"measurement": "Transepidermal water loss", "setting": "[1]; mice with barrier function impaired after tape stripping of the upper epidermis", "result": "ameliorate"},
      {"measurement": "Number of sticking leukocytes in the postcapillary venules, difference vs control", "setting": "[2]; day 12", "result": "not statistically significant"},
      {"measurement": "Vessel diameters at the wound edges vs control group", "setting": "[2]; days 4, 8 and 12 (corresponding times)", "result": "considerably higher"},
      {"measurement": "Red blood cell velocity (RBCV) in the capillaries vs control group", "setting": "[2]; days 4, 8 and 12", "result": "higher"},
      {"measurement": "Number of sticking leukocytes in the postcapillary venules vs control", "setting": "[2]; days 4 and 8", "result": "significantly decreased"},
      {"measurement": "Dermal regeneration vs control group", "setting": "[3]", "result": "more expressed"},
      {"measurement": "Extension of epithelialization zone vs control", "setting": "[3]", "result": "more extended"},
      {"measurement": "Macroscopic wound closure (decrease in wound area relative to baseline)", "setting": "[4]; by day 20, 100 μL of 100 μM dantrolene sodium salt solution on the wound once a day, 4 mm wound", "result": "~100", "unit": "%"},
      {"measurement": "Rate of wound closure vs control group", "setting": "[4]; day 16", "result": "no difference"},
      {"measurement": "Rate of wound closure vs control group", "setting": "[4]; days 4, 8 and 12, p<0.05 vs saline control", "result": "significantly higher"},
      {"measurement": "Blood flow in the wound area after vs before dantrolene treatment", "setting": "[5]", "result": "significant elevation"}
    ]}
  ]
}
